In US20080233210A1, “Co-Biocidal Formulation for Polymeric Materials” (U.S. BORAX INC., priority 2005, published 2008):

Columns and labels:
[1] = tested on: Aspergillus niger, Penicillium pinophilum, Chetomium globusum, Gliocladium virens, Aurebasidium pullulans; assay: ASTM G-21 fungi resistance of extruded wood/thermoplastic composite boards, unweathered or after QUV accelerated weathering with leaching; format: cell-based; parameters: key to Visual Assessment of Fungal Growth (0-4 scale) / Visual assessment of fungal growth, ZB = 2%, Weathering 0 h: 0: None; Traces of growth (less than 10%); 2: Light growth (10 to 30%); Medium growth (more than 30 to 60%); 4: Heavy growth (60% to complete coverage); conditions: for Visual Assessment of Fungal Growth (0-4 scale): pine WPC without UV stabilizer; for Visual Assessment of Fungal Growth (0-4 scale) / visual assessment, 0-4 fungal growth assessment scale: cobiocide content 0% (borate alone); for visual assessment, 0-4 fungal growth assessment scale: oak WPC, no UV stabilizer package
Description: Three 50×50×4 mm specimens were cut from the core of extruded boards, sterilized with a 30 kGy dose of Electron beam radiation and exposed to fungi attack according to ASTM G-21.
After 28 days exposure to the fungi at 98% relative humidity and 28° C., specimens were evaluated using the first scale, from 0-4 as recommended by ASTM G-21 (see Table 3). Results are shown in Table 4 with the summary in Tables 5-7.
Samples prepared according to Example 1 were exposed to accelerated weathering using a QUV accelerated weathering chamber with fluorescent bulb combined with leaching cycle. […] This includes cycles comprised of 8 h UV light (UVA 340 lamps @0.77 W/m^2/nm) @60° C. followed by 4 hours condensation @50° C. Samples were exposed to these conditions for 15 hours and then leached in water. Leaching consisted of 4 hours soaking and 3 hours drip dry (1 hours was required for sample handling). […] After exposure, three 1″×2.5″×⅛″ specimens were cut from the sample. The surface exposed to light and leaching and tested for fungi resistance as described in example 2. Results are presented in Table 3 with summary in Tables 4-6
Samples prepared according to Example 1 were exposed to accelerated weathering using a QUV accelerated weathering chamber with fluorescent bulb combined with leaching cycle. Total exposure time was 1000 hours. This includes cycles comprised of 8 h UV light (UVA 340 lamps @0.77 W/m^2/nm) @60° C. followed by 4 hours condensation @50° C. Samples were exposed to these conditions for 16 hours and then leached in water. Leaching consisted of 4 hours soaking and 3 hours drip dry (1 h was required for sample handling). […] After exposure, three 1″×2.5″×⅛″ specimens were cut from the sample. The surface exposed to light and leaching and tested for fungi resistance as described in Example 2. Results are presented in Table 3 with summary in Tables 4-6.

[2] = tested on: Aspergillus niger, Penicillium pinophilum, Chetomium globusum, Gliocladium virens, Aurebasidium pullulans; assay: ASTM G-21 fungi exposure of dried paint coating films; format: cell-based; conditions: coating film, ASTM G-21, 28 days; very high concentrations of Chlortram (0.33%)
Description: The coatings were cast on flat polyethylene sheeting and dried into 10 mil thick film before removal from the polyethylene substrate. The dried paint coatings were cut into 2″×2″ square specimens, sterilized with 30 kGy EB radiation and exposed to fungi attack according to ASTM G-21. After 28 days exposure to the fungi at 98% relative humidity and 28° C., the specimens were evaluated using two scales.

OB(O)O [BA]
Visual Assessment of Fungal Growth (0-4 scale) ([1]; BA = 1%, weathering 0 hours): 4 (Heavy growth (60% to complete coverage)) | Visual Assessment of Fungal Growth (0-4 scale) ([1]; BA = 2%, weathering 0 hours): 3 (Medium growth (more than 30 to 60%))

N#Cc1c(Cl)c(Cl)c(Cl)c(C#N)c1Cl [Chlortram, 2,4,5,6 tetrachloro-1,3-benzene-dicarbonitrile]
fungal growth observed on coating specimens [2]: No fungal growth

Zinc borate [ZB]
visual assessment, 0-4 fungal growth assessment scale ([1]; ZB = 1%, weathering 0 h): 4 (Heavy growth (60% to complete coverage)) | visual assessment, 0-4 fungal growth assessment scale ([1]; ZB = 1%, weathering 500 h): 4 (Heavy growth (60% to complete coverage)) | visual assessment, 0-4 fungal growth assessment scale ([1]; ZB = 1%, weathering 1000 h): 3 (Medium growth (more than 30 to 60%)) | visual assessment, 0-4 fungal growth assessment scale ([1]; ZB = 1.5%, weathering 0 h): 2 (Light growth (10 to 30%)) | visual assessment, 0-4 fungal growth assessment scale ([1]; ZB = 2%, weathering 0 h): 2 (Light growth (10 to 30%)) | visual assessment, 0-4 fungal growth assessment scale ([1]; ZB = 2%, weathering 500 h): 3 (Medium growth (more than 30 to 60%)) | visual assessment, 0-4 fungal growth assessment scale ([1]; ZB = 2%, weathering 1000 h): 3 (Medium growth (more than 30 to 60%)) | Visual assessment of fungal growth, ZB = 1%, Weathering 0 h ([1]; pine WPC with UV stabilizer package, cobiocide content 0%, ZB = 1%, 0 h): 1 (Traces of growth (less than 10%)) | Visual assessment of fungal growth, ZB = 1%, Weathering 500 h ([1]; pine WPC with UV stabilizer package, cobiocide content 0%, ZB = 1%, 500 h): 4 (Heavy growth (60% to complete coverage)) | Visual assessment of fungal growth, ZB = 1%, Weathering 1000 h ([1]; pine WPC with UV stabilizer package, cobiocide content 0%, ZB = 1%, 1000 h): 4 (Heavy growth (60% to complete coverage)) | Visual assessment of fungal growth, ZB = 2%, Weathering 0 h ([1]; pine WPC with UV stabilizer package, cobiocide content 0%, ZB = 2%, 0 h): 0 | Visual assessment of fungal growth, ZB = 2%, Weathering 500 h ([1]; pine WPC with UV stabilizer package, cobiocide content 0%, ZB = 2%, 500 h): 3 (Medium growth (more than 30 to 60%)) | Visual assessment of fungal growth, ZB = 2%, Weathering 1000 h ([1]; pine WPC with UV stabilizer package, cobiocide content 0%, ZB = 2%, 1000 h): 4 (Heavy growth (60% to complete coverage)) | Visual Assessment of Fungal Growth (0-4 scale) ([1]; ZB = 1%, weathering 0 h): 2 (Light growth (10 to 30%)) | Visual Assessment of Fungal Growth (0-4 scale) ([1]; ZB = 1%, weathering 500 h): 4 (Heavy growth (60% to complete coverage)) | Visual Assessment of Fungal Growth (0-4 scale) ([1]; ZB = 1%, weathering 1000 h): 4 (Heavy growth (60% to complete coverage)) | Visual Assessment of Fungal Growth (0-4 scale) ([1]; ZB = 1.5%, weathering 0 hours): 1 (Traces of growth (less than 10%)) | Visual Assessment of Fungal Growth (0-4 scale) ([1]; ZB = 2%, weathering 0 h): 0 | Visual Assessment of Fungal Growth (0-4 scale) ([1]; ZB = 2%, weathering 500 h): 4 (Heavy growth (60% to complete coverage))
